Reference: patent US5330741A, “Long-wavelength water soluble chlorin photosensitizers useful for photodynamic therapy and diagnosis of tumors” (The Regents of the University of California, priority 1992, dated 1994)
Read-outs that look alike come from different tables or passages of the source.

What was measured:
[1] = Long wavelength molar extinction coefficient; format: physicochemical; settings: in methanol, at 660 nm
Protocol: Lysyl-chlorin-p6 was prepared by treatment of purpurin 18 methyl ester (obtained from chlorophyll-a) with lysine in a mixture of dichloromethane, pyridine, and water. It was purified using a Waters Associate's C18 SepPak cartridge. Reversed phase analytical high-performance liquid chromatography (HPLC) indicated the product to consist of 60% lysyl chlorin-p6 and 40% chlorin-p6 based on equal absorbance at 403 nm. This mixture is termed "LCP". The long wavelength molar extinction coefficient of lysyl-chlorin-p6 in methanol was 39,600 at 660 nm.

[2] = Water solubility; format: physicochemical
[3] = Stability of compounds; format: physicochemical; settings: decomposes to purpurin-18 methyl ester (3) and polar baseline material
[4] = system: tumor; settings: cited from earlier work
[5] = system: normal skin; settings: comparable drug and light doses; cited from earlier work
[6] = system: cell killing; settings: cited from earlier work; for activity in photodynamic therapy: in vitro conditions; for photosensitized cell killing: low intensity of red light

Structure (SMILES): C=Cc1c(C)c2cc3nc(c(C(=O)O)c4[nH]c(cc5nc(cc1[nH]2)C(C)=C5CC)c(C)c4C(=O)NCCCCC(N)C(=O)O)[C@@H](CCC(=O)OC)[C@@H]3C (stereo partly shown) [(II), chlorin-p6 6-N^ε -lysylamide-7-methyl ester]
- long wavelength molar extinction coefficient [1]: 39,600
- solubility in water [2]: well soluble in water

Structure (SMILES): C=Cc1c(C)c2cc3nc(c(C(=O)O)c4[nH]c(cc5nc(cc1[nH]2)C(C)=C5CC)c(C)c4C(=O)NCCCC)[C@@H](CCC(=O)OC)[C@@H]3C [(VII), chlorin-p6-6-N-butylamide-7-methyl ester]
- stability [3]: not very stable and readily decomposed

Structure (SMILES): C=Cc1c(C)c2cc3nc(c(CC(=O)N[C@@H](CC(=O)[O-])C(=O)[O-])c4[nH]c(cc5nc(cc1[nH]2)C(C)=C5CC)c(C)c4C(=O)[O-])[C@@H](CCC(=O)[O-])[C@@H]3C.[Na+].[Na+].[Na+].[Na+] [MACE, mono-L-aspartyl-chlorin e6]
- tumor cures ([4]; 24 hours between drug administration and light): ineffective at inducing tumor cures
- tumor cures ([4]; administered 4-6 hours prior to light exposure): PDT induced tumor cures were obtained
- level of PDT induced normal skin damage vs HpD [5]: significantly lesser

Structure (SMILES): C=Cc1c(C)c2cc3nc(c4c5[nH]c(cc6nc(cc1[nH]2)C(C)=C6CC)c(C)c5C(=O)OC4=O)[C@@H](CCC(=O)O)[C@@H]3C [Purpurin-18]
- activity in photodynamic therapy [6]: active in photodynamic therapy
- photosensitized cell killing [6]: potent photosensitizers which promote cell killing

Structure (SMILES): C=Cc1c(C)c2cc3nc(c(C(=O)O)c4[nH]c(cc5nc(cc1[nH]2)C(C)=C5CC)c(C)c4C(=O)O)[C@@H](CCC(=O)O)[C@@H]3C [chlorin-p6]
- activity in photodynamic therapy [6]: active in photodynamic therapy
- photosensitized cell killing [6]: potent photosensitizers which promote cell killing
